Measurements: PubChem BioAssay AID1963861 (Molecular Pharmacology Branch, DTP, NCI, 2024)

System: 885724-159-R-J1-PDC KRAS PDC multicell spheroid viability
Assay: Anticancer human tumor 885724-159-R-J1-PDC patient-derived pancreatic adenocarcinoma cell line growth inhibition [KRAS2]
Conditions: for IC50: curve of first compound; for viability, T/C: stronger effect = lower value
Outline: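 KRAS-mutant tumor cells were grown as spheroids with HUVEC endothelial cells and human MSCs as stroma. Targeted agents were tested alone and with KRAS pathway inhibitors. Doses started at or near clinical Cmax, or 10 microM, descending half-log.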

[1] = second compound 0.1 µM, first compound 0.0316 µM
[2] = second compound 0.1 µM, first compound 0.1 µM
[3] = second compound 0.1 µM, first compound 0.316 µM
[4] = second compound 0.1 µM, first compound 1 µM
[5] = second compound 0.1 µM, first compound 3.16 µM
[6] = second compound 0.316 µM, first compound 0.0316 µM
[7] = second compound 0.316 µM, first compound 0.1 µM
[8] = second compound 0.316 µM, first compound 0.316 µM
[9] = second compound 0.316 µM, first compound 1 µM
[10] = second compound 0.316 µM, first compound 3.16 µM
[11] = second compound 1 µM, first compound 0.0316 µM
[12] = second compound 1 µM, first compound 0.1 µM
[13] = second compound 1 µM, first compound 0.316 µM
[14] = second compound 1 µM, first compound 1 µM
[15] = second compound 1 µM, first compound 3.16 µM
[16] = second compound 3.16 µM, first compound 0.0316 µM
[17] = second compound 3.16 µM, first compound 0.1 µM
[18] = second compound 3.16 µM, first compound 0.316 µM
[19] = second compound 3.16 µM, first compound 1 µM
[20] = second compound 3.16 µM, first compound 3.16 µM
[21] = second compound 10 µM, first compound 0.0316 µM
[22] = second compound 10 µM, first compound 0.1 µM
[23] = second compound 10 µM, first compound 0.316 µM
[24] = second compound 10 µM, first compound 1 µM
[25] = second compound 10 µM, first compound 3.16 µM
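Also: spheroids exposed to agents for 7 days before readout.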

Row | Structure (SMILES) | IC50 (second compound 0.1 µM) [µM] | IC50 (second compound 0.316 µM) [µM] | IC50 (second compound 1 µM) [µM] | IC50 (second compound 3.16 µM) [µM] | IC50 (second compound 10 µM) [µM] | viability, T/C [1] [%] | viability, T/C [2] [%] | viability, T/C [3] [%] | viability, T/C [4] [%] | viability, T/C [5] [%] | viability, T/C [6] [%] | viability, T/C [7] [%] | viability, T/C [8] [%] | viability, T/C [9] [%] | viability, T/C [10] [%] | viability, T/C [11] [%] | viability, T/C [12] [%] | viability, T/C [13] [%] | viability, T/C [14] [%] | viability, T/C [15] [%] | further results
1 | CC1COCCN1c1cc(-c2ccnn2C)c2ccnc(-c3ccn[nH]3)c2n1 (stereo not given) + COc1cc2nc(C)nc(NC(C)c3cc(N)cc(C(F)(F)F)c3)c2cc1OC1CCOC1 | 2.72 | > 3.16 | > 3.16 | > 3.16 | < 0.01 | 91.6 | 71.5 | 62.5 | 49.1 | 50.9 | 94.3 | 70 | 63 | 52 | 53.9 | 88.4 | 73.5 | 60.6 | 56 | 58.4 | viability, T/C (second compound 0.1 µM, first compound 0.01 µM): 99.4%; viability, T/C (second compound 0.316 µM, first compound 0.01 µM): 101%; viability, T/C (second compound 1 µM, first compound 0.01 µM): 111%; viability, T/C (second compound 3.16 µM, first compound 0.01 µM): 97.3%; viability, T/C [16]: 89.2%; viability, T/C [17]: 71.3%; viability, T/C [18]: 61.9%; viability, T/C [19]: 59.2%; viability, T/C [20]: 52.9%; viability, T/C (second compound 10 µM, first compound 0.01 µM): 46%; viability, T/C [21]: 51.7%; viability, T/C [22]: 49.4%; viability, T/C [23]: 34.2%; viability, T/C [24]: 41.9%; viability, T/C [25]: 32.2%
2 | CC1OCC2(CCN(c3cnc(Sc4ccnc(N)c4Cl)c(N)n3)CC2)C1N (stereo not given) + COc1cc2nc(C)nc(NC(C)c3cc(N)cc(C(F)(F)F)c3)c2cc1OC1CCOC1 | > 10 | > 10 | > 10 | > 10 | < 0.0316 | 90 | 84.8 | 76.7 | 67.1 | 62.1 | 93.4 | 82.7 | 73.2 | 67.6 | 57.2 | 83.4 | 82.5 | 70 | 62.7 | 57 | viability, T/C (second compound 0.1 µM, first compound 10 µM): 53.7%; viability, T/C (second compound 0.316 µM, first compound 10 µM): 54.7%; viability, T/C (second compound 1 µM, first compound 10 µM): 51.4%; viability, T/C [16]: 76.5%; viability, T/C [17]: 73.1%; viability, T/C [18]: 69.6%; viability, T/C [19]: 59%; viability, T/C [20]: 55.1%; viability, T/C (second compound 3.16 µM, first compound 10 µM): 51.6%; viability, T/C [21]: 22.7%; viability, T/C [22]: 21.7%; viability, T/C [23]: 19.5%; viability, T/C [24]: 13.1%; viability, T/C [25]: 13.5%; viability, T/C (second compound 10 µM, first compound 10 µM): 5.33%
